Key:
Estrogen receptor [1] = target: T1, Estrogen receptor (Homo sapiens, UniProt P03372); assay: Estrogen Receptor (ER) Degradation Assay
T1 sequence (P03372 whole entry): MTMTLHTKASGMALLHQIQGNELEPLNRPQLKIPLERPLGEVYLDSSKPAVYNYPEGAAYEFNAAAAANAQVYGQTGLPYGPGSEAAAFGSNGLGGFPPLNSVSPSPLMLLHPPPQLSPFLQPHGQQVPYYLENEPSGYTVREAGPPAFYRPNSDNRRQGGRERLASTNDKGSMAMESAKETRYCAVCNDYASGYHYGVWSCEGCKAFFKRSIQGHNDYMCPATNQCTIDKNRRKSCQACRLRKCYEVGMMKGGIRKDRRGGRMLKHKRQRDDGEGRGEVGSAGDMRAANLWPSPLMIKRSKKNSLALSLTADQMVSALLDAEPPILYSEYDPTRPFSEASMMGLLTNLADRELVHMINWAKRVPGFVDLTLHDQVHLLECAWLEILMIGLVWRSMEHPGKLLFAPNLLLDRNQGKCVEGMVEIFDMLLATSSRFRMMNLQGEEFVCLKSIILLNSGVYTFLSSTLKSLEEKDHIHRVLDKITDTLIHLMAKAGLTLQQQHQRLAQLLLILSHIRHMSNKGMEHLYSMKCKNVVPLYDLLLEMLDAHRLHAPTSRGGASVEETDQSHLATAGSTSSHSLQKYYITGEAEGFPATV
Experimental: A screening strategy was implemented utilizing an In-Cell Western assay to measure their ability to degrade the estrogen receptor in vitro. MCF7 cells, which are estrogen receptor positive, were plated at a cell density of […] into black walled clear bottom 96-well plates. Cells were incubated in phenol red free Dulbecco's Modified Eagle Media (DMEM) supplemented with 8% charcoal-stripped fetal bovine calf serum for 24 hours in a humidified 37° C. incubator. Concentrated stock compounds were diluted to 10× in complete media. Compounds were added to the plated cells in a dose-dependent manner ranging from 1E-12 to 1E-05 M and incubated for an additional 24 hours at 37° C. Culture medium was removed from the culture plates by gentle inversion. Cells were fixed in 4% paraformaldehyde in 1× phosphate buffered saline-calcium magnesium free (PBS-CMF) for 15 minutes at room temperature, washed 3 times for 5 minutes each in 1×PBS-CMF. […] ER protein expression was assessed by the Licor Odyssey CLx imaging system using Image Studio v5.2. Data is processed utilizing GraphPad Prism 7 by subtracting background from the vehicle and setting the vehicle to 100% ER activity, followed by comparing treated samples to vehicle.

Estrogen receptor [2] = target: T1, Estrogen receptor; assay: Human ERalpha Reporter Assa
Experimental: All reagents used in this assay was supplied in the Human ERα Reporter Assay by Indigo Biosciences # IB00401. In an effort to screen selective estrogen receptor degraders (SERDs), the Human ERα Reporter Assay, supplied by Indigo Biosciences, was utilized to quantify antagonist functional activity against the human estrogen receptor. Reporter cells were thawed at 37° C. and added to pre-warmed to 37° C. cell recovery medium (CRM). Stock concentration of 17β-estradiol was serially diluted in CRM. […] Cells plus 17β-estradiol were dispensed in a kit-supplied white walled 96-well plate. Concentrated stocks of test compounds were diluted to 2× working concentrations in cell screening medium (CSM). 2× concentrated compounds were added to the plated cells in a dose-dependent manner resulting in a final concentration range of 1E-11 to 1E-5 M and a final 17β-estradiol concentration of 8E-10 M. Assay plates were incubated for 24 hours in a humidified 37° C. incubator. Culture medium was removed from the assay plates by inversion. Detection substrate and buffer was warmed to room temperature, mixed thoroughly, and immediately added to the assay plates. […] Luminescence was measured in a Synergy HTX luminescence plate reader. Data is processed utilizing GraphPad Prism 7 by graphing the relative light units measured at each compound concentration.

Compound | IC50 (Estrogen receptor [1]) [nM] | IC50 (Estrogen receptor [2]) [nM]
Cc1cc(F)cc(C)c1C(=O)c1sc2cc(O)ccc2c1Oc1ccc(OCCN2CCCC2)cc1 [US10208011, Compound 108] | < 1000 | 
Cc1cc(F)cc(C)c1C(=O)c1sc2cc(O)ccc2c1Oc1ccc(OCCN2CCCCCC2)cc1 [US10208011, Compound 107] |  | < 1000
Cc1cc(F)cc(C)c1C(=O)c1sc2cc(O)ccc2c1Oc1ccc(OCCN2CCCCC2)cc1 [US10208011, Compound 106] |  | < 1000
